Consider 8 molecules from patent publication US20260274829A1, “NEW E3 UBIQUITIN LIGASE LIGAND, PROTEIN DEGRADATION AGENT AND USE THEREOF” (GLUETACS THERAPEUTICS (SHANGHAI) CO., LTD., priority 2023, published 2026).

The target of the assay is T1, human Cereblon WT GST-tagged protein (Homo sapiens, UniProt Q96SW2).
T1 construct: purchased CISBIO 64BDCRBNPEH
T1 sequence (Q96SW2 whole entry): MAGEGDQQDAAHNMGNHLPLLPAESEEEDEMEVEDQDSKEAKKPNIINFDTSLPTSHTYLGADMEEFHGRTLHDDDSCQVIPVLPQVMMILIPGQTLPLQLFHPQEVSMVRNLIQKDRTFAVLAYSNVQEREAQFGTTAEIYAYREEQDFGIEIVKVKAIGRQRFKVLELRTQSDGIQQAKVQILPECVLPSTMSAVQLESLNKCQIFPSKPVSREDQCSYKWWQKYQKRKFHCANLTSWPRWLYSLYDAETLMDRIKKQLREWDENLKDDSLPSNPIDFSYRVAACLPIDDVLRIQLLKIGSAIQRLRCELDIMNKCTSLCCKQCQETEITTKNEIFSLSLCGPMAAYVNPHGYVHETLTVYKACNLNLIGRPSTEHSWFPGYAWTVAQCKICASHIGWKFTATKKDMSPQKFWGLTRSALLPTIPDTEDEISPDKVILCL
Put plainly: CRBN binding, HTRF CEREBLON BINDING kit. Conditions: CRBN binding, HTRF CEREBLON BINDING kit. An outline of the steps:
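Binding inhibition was calculated from the 665/620 nm emission ratios, with blank wells and solvent wells as references. Test compounds competed for GST-tagged human Cereblon WT against a Thalidomide-Re reagent paired with GST Eu antibody. Plates were sealed and held at room temperature for 3 hours before the HTRF read.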
Background: Time-resolved FRET reads energy transfer from a long-lived donor to a nearby acceptor.
Broadly, the IC50 is the concentration that gives 50% inhibition. Lower therefore signals greater potency in that assay. `O=C1CCN(c2cccc(CN3CCN(C4CCN(c5ccc(Nc6ncc7nc(Nc8ccccc8)n(C8CCCC8)c7n6)cc5)CC4)CC3)c2)C(=O)N1` [GT-05940, 1-(3-((4-(1-(4-((9-cyclopentyl-8-(phenylamino)-9H-purin-2-yl)amino)phenyl)piperidin-4-yl)piperazin-1-yl)methyl)phenyl)dihydropyrimidine-2,4(1H,3H)-dione] registered an IC50 of 500 to 1000 nM.

Take `O=C1CCN(c2ccc(CN3CCN(C4CCN(c5ccc(Nc6ncc7nc(Nc8ccccc8)n(C8CCCC8)c7n6)cc5)CC4)CC3)nc2)C(=O)N1` [GT-05941, 1-(6-((4-(1-(4-((9-cyclopentyl-8-(phenylamino)-9H-purin-2-yl)amino)phenyl)piperidin-4-yl)piperazin-1-yl)methyl)pyridin-3-yl)dihydropyrimidine-2,4(1H,3H)-dione]: the IC50 lay within 1000 to 1900 nM.

For the molecule `O=C1CCC(Nc2cccc(CN3CCN(C4CCN(c5ccc(Nc6ncc7nc(Nc8ccccc8)n(C8CCCC8)c7n6)cc5)CC4)CC3)c2)C(=O)N1` (centres unmarked) [GT-05943, 3-((3-((4-(1-(4-((9-cyclopentyl-8-(phenylamino)-9H-purin-2-yl)amino)phenyl)piperidin-4-yl)piperazin-1-yl)methyl)phenyl)amino)piperidine-2,6-dione], the IC50 was in the range of 500 to 1000 nM.

On to `COc1cc(N2CCC(N(C)Cc3ccc(N4CCC(=O)NC4=O)cn3)CC2)c(C)cc1Nc1ncc(Br)c(Nc2ccc3nccnc3c2P(C)(C)=O)n1` [GT-05952, 1-(6-(((1-(4-((5-bromo-4-((5-(dimethylphosphoryl)quinoxalin-6-yl)amino)pyrimidin-2-yl)amino)-5-methoxy-2-methylphenyl)piperidin-4-yl)(methyl)amino)methyl)pyridin-3-yl)dihydropyrimidine-2,4(1H,3H)-dione], for which the IC50 was in the range of 500 to 1000 nM.

The molecule `COc1cc(N2CCC(N3CCN(Cc4ccc(C5CCC(=O)NC5=O)cc4)CC3)CC2)c(C)cc1Nc1ncc(Br)c(Nc2ccc3nccnc3c2P(C)(C)=O)n1` (centres unmarked) [GT-05999, 3-(4-((4-(1-(4-((5-bromo-4-((5-(dimethylphosphoryl)quinoxalin-6-yl)amino)pyrimidin-2-yl)amino)-5-methoxy-2-methylphenyl)piperidin-4-yl)piperazin-1-yl)methyl)phenyl)piperidine-2,6-dione] yielded an IC50 of 1000 to 1900 nM.

In turn, `COc1cc(N2CCC(N3CCN(Cc4ccc(N5CCC(=O)NC5=O)cn4)CC3)CC2)c(C)cc1Nc1ncc(Br)c(Nc2ccc3nccnc3c2P(C)(C)=O)n1` [GT-06003, 1-(6-((4-(1-(4-((5-bromo-4-((5-(dimethylphosphoryl)quinoxalin-6-yl)amino)pyrimidin-2-yl)amino)-5-methoxy-2-methylphenyl)piperidin-4-yl)piperazin-1-yl)methyl)pyridin-3-yl)dihydropyrimidine-2,4(1H,3H)-dione] displayed an IC50 of 1000 to 1900 nM.

In the case of `COC1CCN(c2nccc(Nc3cc4c(cn3)c(N3CCN(Cc5ccc(C6CCC(=O)NC6=O)cc5)CC3)nn4C(C)C)n2)CC1` (centres unmarked) [GT-06036, 3-(4-((4-(1-isopropyl-6-((2-(4-methoxypiperidin-1-yl)pyrimidin-4-yl)amino)-1H-pyrazolo[4,3-c]pyridin-3-yl)piperazin-1-yl)methyl)phenyl)piperidine-2,6-dione], the IC50 lay in the range of 1000 to 1900 nM.

As for `CC(C)n1nc(N2CCC(N3CCN(Cc4cccc(N5CCC(=O)NC5=O)c4)CC3)CC2)c2cnc(Nc3ccnc(-c4cnn(S(=O)(=O)C5CC5)c4)n3)cc21` [GT-06080, 1-(3-((4-(1-(6-((2-(1-(cyclopropylsulfonyl)-1H-pyrazol-4-yl)pyrimidin-4-yl)amino)-1-isopropyl-1H-pyrazolo[4,3-c]pyridin-3-yl)piperidin-4-yl)piperazin-1-yl)methyl)phenyl)dihydropyrimidine-2,4(1H,3H)-dione], the IC50 was in the range of 500 to 1000 nM.
